The values below come from patent US20250320213A1, “Nitrogen-Containing Heterocyclic Compounds” (Pfizer Inc., priority 2024, published 2025).

This assay addresses T1, STAT6 (Homo sapiens, UniProt P42226).
T1 construct: stably transfected HaCaT keratinocyte cell line, which expresses NanoLuc luciferase reporter gene under the transcriptional control of the STAT6 responsive promoter; endogenous in cells; host or cells: HaCaT keratinocyte reporter cell line (stably transfected with a NanoLuc reporter)
T1 sequence (P42226 1-847): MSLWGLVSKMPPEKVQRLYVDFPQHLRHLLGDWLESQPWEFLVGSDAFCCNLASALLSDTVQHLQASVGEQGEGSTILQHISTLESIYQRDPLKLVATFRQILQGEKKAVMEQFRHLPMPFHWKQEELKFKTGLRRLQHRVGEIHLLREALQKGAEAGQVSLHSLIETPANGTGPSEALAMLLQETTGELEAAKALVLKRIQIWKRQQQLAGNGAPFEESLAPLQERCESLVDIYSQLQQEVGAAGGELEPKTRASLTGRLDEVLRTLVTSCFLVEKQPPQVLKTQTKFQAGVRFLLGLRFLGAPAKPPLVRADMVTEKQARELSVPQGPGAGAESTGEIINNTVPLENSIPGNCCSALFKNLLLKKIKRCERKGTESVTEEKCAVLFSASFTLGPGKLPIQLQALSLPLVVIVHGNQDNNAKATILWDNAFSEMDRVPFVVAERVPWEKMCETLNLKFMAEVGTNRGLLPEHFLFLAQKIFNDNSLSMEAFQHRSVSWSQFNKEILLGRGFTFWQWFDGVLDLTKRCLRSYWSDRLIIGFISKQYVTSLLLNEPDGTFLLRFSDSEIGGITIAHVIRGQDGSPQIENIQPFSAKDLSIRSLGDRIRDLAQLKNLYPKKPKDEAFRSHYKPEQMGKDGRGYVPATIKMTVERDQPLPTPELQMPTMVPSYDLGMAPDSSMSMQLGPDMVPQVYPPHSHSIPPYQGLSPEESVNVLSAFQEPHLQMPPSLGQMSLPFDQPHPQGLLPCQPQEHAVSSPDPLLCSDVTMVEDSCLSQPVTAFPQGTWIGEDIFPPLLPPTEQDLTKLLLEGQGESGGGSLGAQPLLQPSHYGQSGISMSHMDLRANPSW
As to the kind of experiment: STAT6 Reporter Luciferase Assay (IL-13 stimulated HaCaT keratinocyte NanoLuc reporter cells). In kind it is cell-based. The following applies: IL-13 stimulated HaCaT STAT6 NanoLuc reporter cells; read-out: Reporter EC50. Put shortly:
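HaCaT IL-13Ra2-promoter NanoLuc reporter; cpd 2 h 37 °C in DMEM/2% HI FBS; IL-13 0.12 nM final, 4 h; Nano-Glo luminescence.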
Turning to `CC(C)n1nc(C(=O)NCc2ccc(NC(=O)N(C)C)cc2)c2c1CCN(c1ccc(C(=O)N3CCC(C)(C#N)C3)cn1)C2` (stereo not shown) [Example 240, 5-(5-(3-cyano-3-methylpyrrolidine-1-carbonyl)pyridin-2-yl)-N-(4-(3,3-dimethylureido)benzyl)-1-isopropyl-4,5,6,7-tetrahydro-1H-pyrazolo[4,3-c]pyridine-3-carboxamide], the 50% effective concentration (EC50) was 3630 nM.
For `CC(C)n1nc(C(=O)NCc2ccc(NC(=O)N(C)C)cc2)c2c1CCN(c1ccc(C(=O)N3C[C@@H]4CCO[C@@H]4C3)cn1)C2` [Example 241, N-(4-(3,3-dimethylureido)benzyl)-5-(5-((3aS,6aS)-hexahydro-2H-furo[2,3-c]pyrrole-5-carbonyl)pyridin-2-yl)-1-isopropyl-4,5,6,7-tetrahydro-1H-pyrazolo[4,3-c]pyridine-3-carboxamide], the 50% effective concentration (EC50) was determined as 330 nM.
As for `CCOC1CN(C(=O)c2ccc(N3CCc4c(c(C(=O)NCc5ccc(NC(=O)N(C)C)cc5)nn4C(C)C)C3)nc2)C1` [Example 242, N-(4-(3,3-dimethylureido)benzyl)-5-(5-(3-ethoxyazetidine-1-carbonyl)pyridin-2-yl)-1-isopropyl-4,5,6,7-tetrahydro-1H-pyrazolo[4,3-c]pyridine-3-carboxamide], the figure is 352 nM; as for `CC(C)n1nc(C(=O)NCc2ccc(NC(=O)N(C)C)cc2)c2c1CCN(c1ccc(C(=O)N3CC4CC(C3)C4O)cn1)C2` (stereo not shown) [Example 243, N-(4-(3,3-dimethylureido)benzyl)-5-(5-(6-hydroxy-3-azabicyclo[3.1.1]heptane-3-carbonyl)pyridin-2-yl)-1-isopropyl-4,5,6,7-tetrahydro-1H-pyrazolo[4,3-c]pyridine-3-carboxamide], 1650 nM.
As for `CC(C)n1nc(C(=O)NCc2ccc(NC(=O)N(C)C)cc2)c2c1CCN(c1ccc(C(=O)N3CC(C)(O)C3)cn1)C2` [Example 244, N-(4-(3,3-dimethylureido)benzyl)-5-(5-(3-hydroxy-3-methylazetidine-1-carbonyl)pyridin-2-yl)-1-isopropyl-4,5,6,7-tetrahydro-1H-pyrazolo[4,3-c]pyridine-3-carboxamide], the 50% effective concentration (EC50) amounted to 196 nM.
As for `CC(C)n1nc(C(=O)NCc2ccc(NC(=O)N(C)C)cc2)c2c1CCN(c1ccc(C(=O)N3CC4(COCC(=O)N4)C3)cn1)C2` [Example 288, N-(4-(3,3-dimethylureido)benzyl)-1-isopropyl-5-(5-(6-oxo-8-oxa-2,5-diazaspiro[3.5]nonane-2-carbonyl)pyridin-2-yl)-4,5,6,7-tetrahydro-1H-pyrazolo[4,3-c]pyridine-3-carboxamide], the figure is 1640 nM; as for `CC(C)n1nc(C(=O)NCc2ccc(NC(=O)N(C)C)cc2)c2c1CCN(c1ccc(C(=O)N3C[C@H]4COC[C@H]4C3)cn1)C2` [Example 289, N-(4-(3,3-dimethylureido)benzyl)-5-(5-((3aR,6aS)-hexahydro-1H-furo[3,4-c]pyrrole-5-carbonyl)pyridin-2-yl)-1-isopropyl-4,5,6,7-tetrahydro-1H-pyrazolo[4,3-c]pyridine-3-carboxamide], 312 nM; as for `CC(C)n1nc(C(=O)NCc2ccc(NC(=O)N(C)C)cc2)c2c1CCN(c1ccc(C(=O)N3CC[C@H](C#N)C3)cn1)C2` [Example 291, (S)-5-(5-(3-cyanopyrrolidine-1-carbonyl)pyridin-2-yl)-N-(4-(3,3-dimethylureido)benzyl)-1-isopropyl-4,5,6,7-tetrahydro-1H-pyrazolo[4,3-c]pyridine-3-carboxamide], 793 nM.
As for `CC(=O)NC1CN(C(=O)c2ccc(N3CCc4c(c(C(=O)NCc5ccc(NC(=O)N(C)C)cc5)nn4C(C)C)C3)nc2)C1` [Example 292, 5-(5-(3-acetamidoazetidine-1-carbonyl)pyridin-2-yl)-N-(4-(3,3-dimethylureido)benzyl)-1-isopropyl-4,5,6,7-tetrahydro-1H-pyrazolo[4,3-c]pyridine-3-carboxamide], the figure is 990 nM; as for `CC(C)n1nc(C(=O)NCc2ccc(NC(=O)N(C)C)cc2)c2c1CCN(c1ccc(C(=O)N3CC(=O)N(C)[C@H](C)C3)cn1)C2` [Example 293, (R)-5-(5-(3,4-dimethyl-5-oxopiperazine-1-carbonyl)pyridin-2-yl)-N-(4-(3,3-dimethylureido)benzyl)-1-isopropyl-4,5,6,7-tetrahydro-1H-pyrazolo[4,3-c]pyridine-3-carboxamide], 100 nM; as for `CC(C)n1nc(C(=O)NCc2ccc(NC(=O)N(C)C)cc2)c2c1CCN(c1ccc(C(=O)N3CC(=O)NC(C)(C)C3)cn1)C2` [Example 294, 5-(5-(3,3-dimethyl-5-oxopiperazine-1-carbonyl)pyridin-2-yl)-N-(4-(3,3-dimethylureido)benzyl)-1-isopropyl-4,5,6,7-tetrahydro-1H-pyrazolo[4,3-c]pyridine-3-carboxamide], 961 nM.
As for `CC(C)n1nc(C(=O)NCc2ccc(NC(=O)N(C)C)cc2)c2c1CCN(c1ccc(C(=O)N3CCC(O)CC3)cn1)C2` [Example 295, N-(4-(3,3-dimethylureido)benzyl)-5-(5-(4-hydroxypiperidine-1-carbonyl)pyridin-2-yl)-1-isopropyl-4,5,6,7-tetrahydro-1H-pyrazolo[4,3-c]pyridine-3-carboxamide], the figure is 310 nM; as for `CC(=O)N1C[C@@H]2CN(C(=O)c3ccc(N4CCc5c(c(C(=O)NCc6ccc(NC(=O)N(C)C)cc6)nn5C(C)C)C4)nc3)C[C@@H]2C1` [Example 296, 5-(5-((3aR,6aS)-5-acetyloctahydropyrrolo[3,4-c]pyrrole-2-carbonyl)pyridin-2-yl)-N-(4-(3,3-dimethylureido)benzyl)-1-isopropyl-4,5,6,7-tetrahydro-1H-pyrazolo[4,3-c]pyridine-3-carboxamide], 523 nM; as for `CC(C)n1nc(C(=O)NCc2ccc(NC(=O)N(C)C)cc2)c2c1CCN(c1ccc(C(=O)N3CC[C@@H](C#N)C3)cn1)C2` [Example 297, (R)-5-(5-(3-cyanopyrrolidine-1-carbonyl)pyridin-2-yl)-N-(4-(3,3-dimethylureido)benzyl)-1-isopropyl-4,5,6,7-tetrahydro-1H-pyrazolo[4,3-c]pyridine-3-carboxamide], 225 nM.
Consider `CC(C)n1nc(C(=O)NCc2ccc(NC(=O)N(C)C)cc2)c2c1CCN(c1ccc(C(=O)N3CC4(CCC(=O)N4)C3)cn1)C2` [Example 298, N-(4-(3,3-dimethylureido)benzyl)-1-isopropyl-5-(5-(6-oxo-2,5-diazaspiro[3.4]octane-2-carbonyl)pyridin-2-yl)-4,5,6,7-tetrahydro-1H-pyrazolo[4,3-c]pyridine-3-carboxamide], for which the EC50 is 2540 nM.
Regarding `CC(=O)N1[C@H](C)CN(C(=O)c2ccc(N3CCc4c(c(C(=O)NCc5ccc(NC(=O)N(C)C)cc5)nn4C(C)C)C3)nc2)C[C@@H]1C` [Example 299, 5-(5-((3S,5R)-4-acetyl-3,5-dimethylpiperazine-1-carbonyl)pyridin-2-yl)-N-(4-(3,3-dimethylureido)benzyl)-1-isopropyl-4,5,6,7-tetrahydro-1H-pyrazolo[4,3-c]pyridine-3-carboxamide], the EC50 worked out at 241 nM.
The value for `CC(C)n1nc(C(=O)NCc2ccc(NC(=O)N(C)C)cc2)c2c1CCN(c1ccc(C(=O)N3CC4(CC(=O)N(C)C4)C3)cn1)C2` [Example 300, N-(4-(3,3-dimethylureido)benzyl)-1-isopropyl-5-(5-(6-methyl-7-oxo-2,6-diazaspiro[3.4]octane-2-carbonyl)pyridin-2-yl)-4,5,6,7-tetrahydro-1H-pyrazolo[4,3-c]pyridine-3-carboxamide] was 1420 nM; that for `[2H]C([2H])([2H])N(C(=O)Nc1ccc(CNC(=O)c2nn(C(C)C)c3c2CN(c2ccc(C(=O)N(C)C)cc2)C[C@@H]3C)cc1)C([2H])([2H])[2H]` [Example 315, (S)-N-(4-(3,3-bis(methyl-d3)ureido)benzyl)-5-(4-(dimethylcarbamoyl)phenyl)-1-isopropyl-7-methyl-4,5,6,7-tetrahydro-1H-pyrazolo[4,3-c]pyridine-3-carboxamide] was 2 nM.
The value for `CC(C)n1nc(C(=O)NCc2ccc(NC(=O)N(C)C)cc2)c2c1CCN(c1ccc(C(=O)N3CC(=O)N[C@H](C)C3)cn1)C2` [Example 325, (R)-N-(4-(3,3-dimethylureido)benzyl)-1-isopropyl-5-(5-(3-methyl-5-oxopiperazine-1-carbonyl)pyridin-2-yl)-4,5,6,7-tetrahydro-1H-pyrazolo[4,3-c]pyridine-3-carboxamide] was 710 nM.
